Drawing on patent US7638508B2, “Glucocorticosteroid compound having anti-inflammatory activity” (Glaxo Group Limited, priority 2003, dated 2009), this text covers Emax and EC50 for 16 molecules.

One assay addresses T1, glucocorticoid receptor (Homo sapiens, UniProt P04150).
T1 sequence (P04150 1-777): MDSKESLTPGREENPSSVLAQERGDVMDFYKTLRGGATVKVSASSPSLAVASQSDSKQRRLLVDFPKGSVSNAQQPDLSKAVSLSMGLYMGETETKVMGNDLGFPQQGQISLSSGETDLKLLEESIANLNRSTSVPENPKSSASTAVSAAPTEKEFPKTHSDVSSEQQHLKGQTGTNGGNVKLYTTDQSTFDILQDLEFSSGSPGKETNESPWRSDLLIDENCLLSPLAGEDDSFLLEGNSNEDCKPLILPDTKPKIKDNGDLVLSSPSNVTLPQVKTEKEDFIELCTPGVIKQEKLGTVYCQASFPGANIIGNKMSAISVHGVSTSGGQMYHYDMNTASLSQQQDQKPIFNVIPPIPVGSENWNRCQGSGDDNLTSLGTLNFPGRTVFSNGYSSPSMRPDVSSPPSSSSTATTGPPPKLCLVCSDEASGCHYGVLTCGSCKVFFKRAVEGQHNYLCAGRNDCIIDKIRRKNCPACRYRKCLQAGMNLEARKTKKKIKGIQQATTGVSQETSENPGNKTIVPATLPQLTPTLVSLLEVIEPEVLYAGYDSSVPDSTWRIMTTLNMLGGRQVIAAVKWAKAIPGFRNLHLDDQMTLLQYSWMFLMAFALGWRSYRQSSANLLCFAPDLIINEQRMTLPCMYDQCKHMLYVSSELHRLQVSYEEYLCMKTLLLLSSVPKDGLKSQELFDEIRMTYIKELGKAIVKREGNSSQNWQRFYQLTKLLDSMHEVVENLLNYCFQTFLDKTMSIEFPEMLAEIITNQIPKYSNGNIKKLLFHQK
Nature of the assay: MMTV-LTR renilla luciferase reporter assay in A549 cells (direct transactivation of gene expression). The assay is classed as cell-based. Particulars: 6 hour at 37° C., read-out: maximal response relative to Dexamethasone (100%). How it is done:
Pharmacological activity may be assessed in functional in vitro assays of glucocorticoid agonist activity.
The functional assay based on that described by R. J. H. Austin et al., Eur Resp J. (2002), 20, 1386-1392 measures the ability of compounds to directly transactivate gene expression. A549 cells stably transfected with a reporter gene containing the glucocorticoid responsive region of the mouse mammary tumour virus long terminal repeat (MMTV-LTR) coupled to renilla luciferase were treated with test compounds at appropriate doses for 6 hour at 37° C. The amount of luciferase activity present within the cells is then determined by measuring the light emitted following incubation with a suitable substrate.
(In general: A reporter such as luciferase makes a cellular process visible.)

A further assay concerns the target T2, Progesterone Receptor (Homo sapiens, UniProt P06401).
T2 construct: The human breast cancer cell line T47D has been reported to upregulate an endogenous alkaline phosphatase in response to progestins; endogenous in cells; host or cells: T47D cells
T2 sequence (P06401 1-933): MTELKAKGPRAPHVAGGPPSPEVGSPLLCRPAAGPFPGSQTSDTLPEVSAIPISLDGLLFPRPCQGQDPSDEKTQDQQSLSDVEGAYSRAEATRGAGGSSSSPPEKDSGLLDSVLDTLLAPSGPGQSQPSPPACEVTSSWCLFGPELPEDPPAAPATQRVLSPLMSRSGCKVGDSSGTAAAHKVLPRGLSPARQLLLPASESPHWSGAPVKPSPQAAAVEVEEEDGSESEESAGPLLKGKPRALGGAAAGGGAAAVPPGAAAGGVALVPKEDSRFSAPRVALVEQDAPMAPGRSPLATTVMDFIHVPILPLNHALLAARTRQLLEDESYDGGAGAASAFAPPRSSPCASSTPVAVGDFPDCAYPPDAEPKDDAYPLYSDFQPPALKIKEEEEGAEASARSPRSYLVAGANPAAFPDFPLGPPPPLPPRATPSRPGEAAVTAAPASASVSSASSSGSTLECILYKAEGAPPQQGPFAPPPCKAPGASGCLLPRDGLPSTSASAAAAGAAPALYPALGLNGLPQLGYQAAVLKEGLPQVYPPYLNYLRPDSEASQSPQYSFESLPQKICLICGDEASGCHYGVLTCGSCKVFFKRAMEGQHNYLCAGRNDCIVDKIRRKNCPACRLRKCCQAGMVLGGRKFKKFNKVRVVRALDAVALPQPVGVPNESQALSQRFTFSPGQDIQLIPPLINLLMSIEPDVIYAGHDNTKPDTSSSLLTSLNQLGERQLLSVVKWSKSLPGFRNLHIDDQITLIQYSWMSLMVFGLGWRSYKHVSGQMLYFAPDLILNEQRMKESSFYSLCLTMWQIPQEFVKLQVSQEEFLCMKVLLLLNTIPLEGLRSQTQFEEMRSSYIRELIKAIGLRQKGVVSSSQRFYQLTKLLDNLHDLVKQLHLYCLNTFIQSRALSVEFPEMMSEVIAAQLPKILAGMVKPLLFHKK
Put plainly: Assay for Progesterone Receptor Activity: alkaline phosphatase upregulation in T47D cells. Format: cell-based. Particulars: 24 hours at 37° C. How it is done:
Assay for Progesterone Receptor Activity
The human breast cancer cell line T47D has been reported to upregulate an endogenous alkaline phosphatase in response to progestins (Di Lorenzo et al., Cancer Research (1991) 51, 4470-4475. T47D cells were seeded into 96 well plates at a density of 1×10^5 cells per well and grown overnight at 37° C. Steroids were dissolved in DMSO, added to the cells (final DMSO concentration 0.7%), and incubated for 24 hours at 37° C. The cells were then washed with PBS and lysed with RIPA buffer (1% IGEPAL, 0.5% Na deoxycholate, 0.1% SDS in phosphate buffered saline). Alkaline phosphatase activity was measured spectrophotometrically (405 nm) using p-nitrophenylphosphate (1.5 mg/ml) as a substrate dissolved in 1 M diethanolamine, 0.28M NaCl, 0.5 mM MgCl2. Dose response curves were constructed from which EC50 values were estimated.

In the case of `COc1ccc(C(=O)OC2(C(=O)OCC#N)C(C)CC3C4CC(F)C5=CC(=O)C=CC5(C)C4(F)C(O)CC32C)cc1` (stereo not drawn) [Example 7, 6α,9α-Difluoro-11β-hydroxy-17α-(4-methoxybenzoyl)oxy-16α-methyl-3-oxo-androsta-1,4-diene-17β-carboxylic Acid cyanomethyl Ester], on glucocorticoid receptor, the Emax was below 35%.

A word on the EC50: it is the concentration that produces a half-maximal response. Take `C[C@@H]1C[C@H]2[C@@H]3C[C@H](F)C4=CC(=O)C=C[C@]4(C)[C@@]3(F)[C@@H](O)C[C@]2(C)[C@@]1(OC(=O)c1ccc(S(C)(=O)=O)s1)C(=O)SCC#N` [Example 23, 6α,9α-Difluoro-11β-hydroxy-16α-methyl-17α-(5-methylsulphonyl-thiophene-2-carbonyl)oxy-3-oxo-androsta-1,4-diene-17β-carbothioic Acid S-cyanomethyl Ester]: the Emax at glucocorticoid receptor is below 35%. Also, the EC50 on Progesterone Receptor is above 100 nM.

Take `CC1CC2C3CC(F)C4=CC(=O)C=CC4(C)C3(F)C(O)CC2(C)C1(OC(=O)c1c(F)cccc1F)C(=O)OCC#N` (stereo not drawn) [Example 6, 6α,9α-Difluoro-17α-(2,6-difluorobenzoyl)oxy-11β-hydroxy-16α-methyl-3-oxo-androsta-1,4-diene-17β-carboxylic Acid cyanomethyl Ester]: at glucocorticoid receptor, the Emax was below 35%.

Take `CC1CC2C3CC(F)C4=CC(=O)C=CC4(C)C3(F)C(O)CC2(C)C1(OC(=O)C1CCCCC1)C(=O)SCC#N` (stereo not drawn) [Example 22, 17α-(Cyclohexylcarbonyl)oxy-6α,9α-difluoro-1,1-hydroxy-16α-methyl-3-oxo-androsta-1,4-diene-17β-carbothioic Acid S-cyanomethyl Ester]: the Emax on glucocorticoid receptor is below 35%.

Take `CC1CC2C3CC(F)C4=CC(=O)C=CC4(C)C3(F)C(O)CC2(C)C1(OC(=O)c1ccc(S(C)(=O)=O)s1)C(=O)OCC#N` (stereo not drawn) [Example 14, 6α,9α-Difluoro-11β-hydroxy-16α-methyl-17α-(5-methylsulphonyl-thiophene-2-carbonyl)oxy-3-oxo-androsta-1,4-diene-17β-carboxylic Acid Cyanomethyl Ester]: the Emax on glucocorticoid receptor was below 35%.

In the case of `CC1CC2C3CC(F)C4=CC(=O)C=CC4(C)C3(F)C(O)CC2(C)C1(OC(=O)C1C(C)(C)C1(C)C)C(=O)SCC#N` (stereo not drawn) [Example 1, 6α,9α-Difluoro-11β-hydroxy-16α-methyl-3-oxo-17α-(2,2,3,3-tetramethycyclopropylcarbonyl)oxy-androsta-1,4-diene-17β-carbothioic Acid S-cyanomethyl Ester], the Emax on glucocorticoid receptor was below 35%.

Consider `COc1c(C(=O)OC2(C(=O)SCC#N)C(C)CC3C4CC(F)C5=CC(=O)C=CC5(C)C4(F)C(O)CC32C)csc1Cl` (stereo not drawn) [Example 3, 17α-(5-Chloro-4-methoxy-thiophene-3-carbonyl)oxy-6α,9α-difluoro-11β-hydroxy-16α-methyl-3-oxo-androsta-1,4-diene-17β-carbothioic Acid S-cyanomethyl Ester], for which the Emax on glucocorticoid receptor is below 35%.

With `CC1CC2C3CC(F)C4=CC(=O)C=CC4(C)C3(F)C(O)CC2(C)C1(OC(=O)c1ccc(C(F)(F)F)o1)C(=O)OCC#N` (stereo not drawn) [Example 13, 6α,9α-Difluoro-11β-hydroxy-16α-methyl-3-oxo-17α-(5-trifluoromethyl-furan-2-carbonyl)oxy-androsta-1,4-diene-17β-carboxylic Acid Cyanomethyl Ester], at glucocorticoid receptor, the Emax is below 35%.

On to `CC1CC2C3CC(F)C4=CC(=O)C=CC4(C)C3(F)C(O)CC2(C)C1(OC(=O)CC(C)(C)C)C(=O)OCC#N` (stereo not drawn) [Example 10, 6α,9α-Difluoro-17α-(3,3-dimethylbutanoyl)oxy-11β-hydroxy-16α-methyl-3-oxo-androsta-1,4-diene-17β-carboxylic Acid Cyanomethyl Ester], for which, at glucocorticoid receptor, the Emax is below 35%.

In the case of `C[C@@H]1C[C@H]2[C@@H]3C[C@H](F)C4=CC(=O)C=C[C@]4(C)[C@@]3(F)[C@@H](O)C[C@]2(C)[C@@]1(OC(=O)c1ccc(C(F)(F)F)o1)C(=O)SCC#N` [Example 24, 6α,9α-Difluoro-11β-hydroxy-16α-methyl-3-oxo-17α-(5-trifluoromethyl-furan-2-carbonyl)oxy-androsta-1,4-diene-17β-carbothioic Acid S-cyanomethyl Ester], the Emax at glucocorticoid receptor is below 35%. The EC50 on Progesterone Receptor was above 100 nM.

For the molecule `CC1CC2C3CC(F)C4=CC(=O)C=CC4(C)C3(F)C(O)CC2(C)C1(OC(=O)CC1CCCC1)C(=O)OCC#N` (stereo not drawn) [Example 9, 17α-(Cyclopentylmethylcarbonyl)oxy-6α,9α-difluoro-11β-hydroxy-16α-methyl-3-oxo-androsta-1,4-diene-17β-carboxylic Acid Cyanomethyl Ester], the Emax at glucocorticoid receptor was below 35%.

Take `CC1CC2C3CC(F)C4=CC(=O)C=CC4(C)C3(F)C(O)CC2(C)C1(OC(=O)C1C(C)(C)C1(Cl)Cl)C(=O)SCC#N` (stereo not drawn) [Example 21, 17α-(22-Dichloro-3,3-dimethylclopropylcarbonyl)oxy-6α,9α-difluoro-11β-hydroxy-16α-methyl-3-oxo-androsta-1,4-diene-17β-carbothioic acid S-cyanomethyl Ester]: the Emax at glucocorticoid receptor is below 35%.

For the molecule `CCc1cc(C(=O)OC2(C(=O)OCC#N)C(C)CC3C4CC(F)C5=CC(=O)C=CC5(C)C4(F)C(O)CC32C)no1` (stereo not drawn) [Example 16, 6α,9α-Difluoro-17α-(5-ethyl-isoxazole-3-carbonyl)oxy-11β-hydroxy-16α-methyl-3-oxo-androsta-1,4-diene-17β-carboxylic Acid Cyanomethyl Ester], on glucocorticoid receptor, the Emax was below 35%.

`CC1CC2C3CCC4=CC(=O)C=CC4(C)C3(F)C(O)CC2(C)C1(OC(=O)C1C(C)(C)C1(C)C)C(=O)OCC#N` (stereo not drawn) [Example 17, 9α-Fluoro-11β-hydroxy-16β-methyl-3-oxo-17α-(2,2,3,3-tetramethylcyclopropylcarbonyl)oxy-androsta-1,4-diene-17 b-carboxylic Acid cyanomethyl ester]: the Emax on glucocorticoid receptor was below 35%.

In the case of `COc1c(C(=O)OC2(C(=O)OCC#N)C(C)CC3C4CC(F)C5=CC(=O)C=CC5(C)C4(F)C(O)CC32C)csc1Cl` (stereo not drawn) [Example 19, 17α-(5-Chloro-4-methoxy-thiophene-3-carbonyl)oxy-6α,9α-difluoro-11β-hydroxy-16α-methyl-3-oxo-androsta-1,4-diene-17β-carboxylic Acid Cyanomethyl Ester], the Emax on glucocorticoid receptor is below 35%.

Consider `CC1CC2C3CC(F)C4=CC(=O)C=CC4(C)C3(F)C(O)CC2(C)C1(OC(=O)c1ccc2ccccc2n1)C(=O)OCC#N` (stereo not drawn) [Example 12, 6α,9α-Difluoro-11β-hydroxy-16α-methyl-3-oxo-17α-(quinoline-2-carbonyl)oxy-androsta-1,4-diene-17β-carboxylic Acid Cyanomethyl Ester], for which the Emax at glucocorticoid receptor was below 35%.
